Measurements from paper PMC3114464 (Biochemistry, 2011).

How the values were obtained:
Type in all cases: binding
[1] = target: IsdB-N2 (C-terminal NEAT domain of IsdB) (Staphylococcus aureus, UniProt Q7A656); assay: […] Å crystal structure
IsdB-N2 M362L = IsdB-N2 M362L (Staphylococcus aureus, UniProt Q7A656, M362L); assay: Trp fluorescence quenching
[2] = target: IsdA-N1 (IsdA NEAT domain) (Staphylococcus aureus, UniProt Q7A655)

With `C=CC1=C(C)C2=Cc3c(C=C)c(C)c4[n]3[Fe][n]3c(c(C)c(CCC(=O)O)c3=CC3=NC(=C4)C(C)=C3CCC(=O)O)=CC1=N2` [heme] the Kd [1] was under 380 nM, the Kd (IsdB-N2 M362L) was under 490 nM and the “stopped-flow Soret spectroscopy of heme transfer from holo-IsdB-N2 to apo-IsdA-N” value [2] was 82 ± 6 s^–1.
